Measurements reported in publication PMC10235067, “Increased renal elimination of endogenous and synthetic pyrimidine nucleosides in concentrative nucleoside transporter 1 deficient mice” (Nature Communications, 2023).
Values joined by “and” are separate entries in the source; they are usually repeats but may differ in a detail not shown here. Identical values can stand only once.

Tests used:
[1] = Gemcitabine plasma pharmacokinetics in Slc28a1+/+ and Slc28a1-/- mice; details: for C0: C0, dFdU in plasma; for MRT last: MRTlast
[2] = cited from earlier work
[3] = dFdU in plasma, KO mice, iv gemcitabine 50mg/kg, per mouse
[4] = dFdU in plasma, WT mice, iv gemcitabine 50mg/kg, per mouse
[5] = female, Slc28a1-/- (CNT1 knockout; background strain not stated), mouse, plasma, intravenous, 50 mg/kg, Cp (dFdU), KO mice, single iv gemcitabine 50mg/kg
[6] = female, mouse, plasma, intravenous, 50 mg/kg, Cp (dFdU), WT mice, single iv gemcitabine 50mg/kg

O=c1ccn([C@@H]2O[C@H](CO)[C@@H](O)C2(F)F)c(=O)[nH]1 [dFdU, 2′,2′-difluorodeoxyuridine]
Vss_obs [1, 3]: 69.4601 L/kg and 61.663 L/kg and 82.9724 L/kg | Vss_pred [1, 3]: 69.3609 L/kg and 61.8825 L/kg and 83.3534 L/kg | Vz_obs [1, 3]: 55.6606 L/kg and 50.262 L/kg and 61.5323 L/kg | Vz_pred [1, 3]: 55.7054 L/kg and 50.0305 L/kg and 61.2807 L/kg | AUCINF_D_obs [1, 4]: 809.741 kg·ng·min/mL/mg and 249.152 kg·ng·min/mL/mg and 172.396 kg·ng·min/mL/mg and 377.161 kg·ng·min/mL/mg | AUCINF_D_pred [1, 4]: 816.693 kg·ng·min/mL/mg and 238.149 kg·ng·min/mL/mg and 171.456 kg·ng·min/mL/mg and 377.935 kg·ng·min/mL/mg | AUCINF_obs [1, 4]: 40487.1 ng·min/mL and 12457.6 ng·min/mL and 8619.8 ng·min/mL and 18858.1 ng·min/mL | AUCINF_pred [1, 4]: 40834.7 ng·min/mL and 11907.4 ng·min/mL and 8572.82 ng·min/mL and 18896.7 ng·min/mL | AUC_%Back_Ext_obs [1, 4]: 5.421% and 15.2704% and 19.786% and 11.9089% | AUC_%Back_Ext_pred [1, 4]: 5.375% and 15.976% and 19.8944% and 11.8845% | AUC_%Extrap_obs [1, 4]: 84.3044% and 33.9106% and 11.4334% and 37.4722% | AUC_%Extrap_pred [1, 4]: 84.438% and 30.857% and 10.948% and 37.6002% | AUCall [1, 4]: 4075.38 ng·min/mL and 9255.63 ng·min/mL and 10796.8 ng·min/mL and 8847.25 ng·min/mL and 15444.5 ng·min/mL and 12682.2 ng·min/mL | AUClast [1, 4]: 2654.78 ng·min/mL and 6354.7 ng·min/mL and 8233.16 ng·min/mL and 7634.27 ng·min/mL and 11791.5 ng·min/mL and 11904.6 ng·min/mL | AUClast_D [1, 4]: 53.0957 kg·ng·min/mL/mg and 127.094 kg·ng·min/mL/mg and 164.663 kg·ng·min/mL/mg and 152.685 kg·ng·min/mL/mg and 235.831 kg·ng·min/mL/mg and 238.093 kg·ng·min/mL/mg | AUMCINF_obs [1, 4]: 3570423 min*min*ng/mL and 327900 min*min*ng/mL and 123838 min*min*ng/mL and 570014 min*min*ng/mL | AUMCINF_pred [1, 4]: 3606313 min*min*ng/mL and 297795 min*min*ng/mL and 121856 min*min*ng/mL and 572297 min*min*ng/mL | AUMC_%Extrap_obs [1, 4]: 98.6995% and 70.4945% and 33.5736% and 73.1636% | AUMC_%Extrap_pred [1, 4]: 98.7124% and 67.5118% and 32.4931% and 73.2706% | AUMClast [1, 4]: 21508.2 min*min*ng/mL and 46433.5 min*min*ng/mL and 96748.4 min*min*ng/mL and 82261.4 min*min*ng/mL and 152972 min*min*ng/mL and 128827 min*min*ng/mL | Cl_pred [1, 4]: 73.467 L/h/kg and 251.944 L/h/kg and 349.943 L/h/kg and 158.758 L/h/kg | Clast [1, 4]: 189.413 ng/mL and 386.792 ng/mL and 170.91 ng/mL and 80.8657 ng/mL and 243.534 ng/mL and 51.8385 ng/mL | Clast_pred [1, 4]: 390.731 ng/mL and 148.651 ng/mL and 77.0106 ng/mL and 244.867 ng/mL | Cmax [1, 4]: 214.033 ng/mL and 433.203 ng/mL and 507.425 ng/mL and 460.142 ng/mL and 479.909 ng/mL and 627.306 ng/mL | Cmax_D [1, 4]: 4.281 kg·ng/mL/mg and 8.664 kg·ng/mL/mg and 10.1485 kg·ng/mL/mg and 9.203 kg·ng/mL/mg and 9.598 kg·ng/mL/mg and 12.5461 kg·ng/mL/mg | HL_Lambda_z [1, 4]: 61.1667 min and 17.1328 min and 8.4476 min and 20.1128 min | Lambda_z [1, 4]: 0.01133 min⁻¹ and 0.04046 min⁻¹ and 0.08205 min⁻¹ and 0.03446 min⁻¹ | MRTINF_obs [1, 4]: 88.1868 min and 26.3212 min and 14.3667 min and 30.2266 min | MRTINF_pred [1, 4]: 88.315 min and 25.0092 min and 14.2143 min and 30.2855 min | MRTlast [1, 4]: 7.307 min and 11.7511 min and 10.7753 min and 12.973 min and 10.8216 min | Tlast [1, 4]: 15 min and 30 min | Tmax [1, 4]: 10 min and 5 min and 15 min | Vss_obs [1, 4]: 108.907 L/kg and 105.643 L/kg and 83.3357 L/kg and 80.1423 L/kg | Vss_pred [1, 4]: 108.137 L/kg and 105.015 L/kg and 82.9031 L/kg and 80.1342 L/kg | Vz_obs [1, 4]: 108.979 L/kg and 99.2063 L/kg and 70.6936 L/kg and 76.9343 L/kg | Vz_pred [1, 4]: 108.051 L/kg and 103.79 L/kg and 71.0811 L/kg and 76.7768 L/kg | concentration at 120 min [1, 5]: 0 ng/mL | concentration at 240 min [1, 5]: 0 ng/mL | concentration at 5 min ([1]; female, mouse, plasma, intravenous, 50 mg/kg, Cp (dFdU), KO mice, single iv gemcitabine 50mg/kg, 5 min): 400 ng/mL | concentration at 60 min ([1]; female, mouse, plasma, intravenous, 50 mg/kg, Cp (dFdU), KO mice, single iv gemcitabine 50mg/kg): 0 ng/mL | concentration at 60 min [1, 6]: 0 ng/mL | concentration at 120 min [1, 6]: 0 ng/mL | concentration at 240 min [1, 6]: 0 ng/mL | AUC(0-inf) ([1]; female, mouse, plasma, iv, 50 mg/kg, AUCINF_obs, dFdU in plasma, KO mice, iv gemcitabine 50mg/kg, per mouse): 121 ng·h/mL | AUC(0-inf) ([1]; female, mouse, plasma, iv, 50 mg/kg, AUCINF_pred, dFdU in plasma, KO mice, iv gemcitabine 50mg/kg, per mouse): 121 ng·h/mL | C0 ([1]; female, mouse, plasma, iv, 50 mg/kg, KO mice, iv gemcitabine 50mg/kg, per mouse): 408 ng/mL | C0 ([1]; female, mouse, plasma, iv, 50 mg/kg, WT mice, iv gemcitabine 50mg/kg, per mouse): 445 ng/mL | Cmax ([1]; female, mouse, plasma, iv, 50 mg/kg, Cmax, Slc28a1+/+ mice, plasma, single i.v. dFdC 50 mg/kg): 453 ± 7.35 ng/mL | Cmax ([1]; female, mouse, plasma, iv, 50 mg/kg, Cmax, Slc28a1-/- mice, single i.v. dFdC 50 mg/kg): 386 ± 8.42 ng/mL | k el ([1]; female, mouse, plasma, iv, 50 mg/kg, Lambda_z, dFdU in plasma, KO mice, iv gemcitabine 50mg/kg, per mouse): 0.00206 s⁻¹ | MRT inf ([1]; female, mouse, plasma, iv, 50 mg/kg, MRTINF_obs, dFdU in plasma, KO mice, iv gemcitabine 50mg/kg, per mouse): 10.1 min | MRT inf ([1]; female, mouse, plasma, iv, 50 mg/kg, MRTINF_pred, dFdU in plasma, KO mice, iv gemcitabine 50mg/kg, per mouse): 10.1 min | MRT last ([1]; female, mouse, plasma, iv, 50 mg/kg, dFdU in plasma, KO mice, iv gemcitabine 50mg/kg, per mouse): 9.07 min | MRT last ([1]; female, mouse, plasma, iv, 50 mg/kg, dFdU in plasma, WT mice, iv gemcitabine 50mg/kg, per mouse): 8.1 min | Tmax ([1]; female, mouse, plasma, iv, 50 mg/kg, Tmax, Slc28a1+/+ mice, plasma, single i.v. dFdC 50 mg/kg): 240 min | Tmax ([1]; female, mouse, plasma, iv, 50 mg/kg, Tmax, Slc28a1-/- mice, single i.v. dFdC 50 mg/kg): 240 min | Cp (dFdU) ([1]; plasma, KO mice, single iv gemcitabine 50mg/kg, 5 min): 397.109 ng/mL and 353.736 ng/mL and 215.606 ng/mL and 287.027 ng/mL and 238.121 ng/mL | half-life [2]: ~ 26 h
